Like-named read-outs stand apart in the source and are kept apart here.

The target in data set [1] is T1, CjIMPDH (Campylobacter jejuni, UniProt Q0P9J4).
T1 construct: gene guaB; full-length wild type, N-terminal His6 tag, pMCSG7, E. coli; tetramer
T1 sequence (Q0P9J4 1-485): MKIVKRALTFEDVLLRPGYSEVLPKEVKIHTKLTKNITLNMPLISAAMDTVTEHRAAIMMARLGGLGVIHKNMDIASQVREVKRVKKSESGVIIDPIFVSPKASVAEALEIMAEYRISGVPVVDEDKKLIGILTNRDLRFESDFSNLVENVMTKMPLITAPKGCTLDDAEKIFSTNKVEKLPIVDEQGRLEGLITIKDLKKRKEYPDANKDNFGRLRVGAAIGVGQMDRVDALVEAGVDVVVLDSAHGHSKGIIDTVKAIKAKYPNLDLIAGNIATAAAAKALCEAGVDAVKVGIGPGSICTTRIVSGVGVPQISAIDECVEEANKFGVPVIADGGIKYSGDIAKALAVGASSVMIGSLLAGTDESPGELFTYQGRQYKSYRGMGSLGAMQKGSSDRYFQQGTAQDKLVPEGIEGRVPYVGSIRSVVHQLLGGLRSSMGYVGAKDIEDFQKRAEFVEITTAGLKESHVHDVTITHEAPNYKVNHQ
The experiment in a line: steady-state kinetics, A340. The data set is classed as biochemical. As to conditions: substrate inhibition by NAD+; pH 8.0, 25 °C. An excerpt: steady-state kinetics, A340 on CjIMPDH

In data set [2] the target is T2, BaIMPDH (Bacillus anthracis, UniProt A0A6L8P2U9).
T2 construct: gene guaB
T2 sequence (A0A6L8P2U9 1-487 limits assumed): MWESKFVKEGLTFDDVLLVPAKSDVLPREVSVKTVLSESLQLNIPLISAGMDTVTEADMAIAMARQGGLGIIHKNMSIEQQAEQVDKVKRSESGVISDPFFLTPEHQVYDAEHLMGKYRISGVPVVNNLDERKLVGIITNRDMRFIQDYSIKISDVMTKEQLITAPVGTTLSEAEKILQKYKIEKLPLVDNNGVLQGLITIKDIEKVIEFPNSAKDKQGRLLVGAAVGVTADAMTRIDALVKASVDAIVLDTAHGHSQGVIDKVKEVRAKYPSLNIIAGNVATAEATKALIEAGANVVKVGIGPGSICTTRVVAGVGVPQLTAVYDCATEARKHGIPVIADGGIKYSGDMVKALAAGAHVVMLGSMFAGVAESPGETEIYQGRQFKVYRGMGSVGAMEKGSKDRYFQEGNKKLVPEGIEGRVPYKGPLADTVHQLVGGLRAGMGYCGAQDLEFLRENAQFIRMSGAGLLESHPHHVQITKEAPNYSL
It counts as biochemical.

The target in data set [3] is T1, CjIMPDH. As to the kind of experiment: NADH production, A340. It counts as biochemical. An excerpt:
NADH production, A340 on CjIMPDH

For data set [4], the target named is T3, CpIMPDH (Cryptosporidium parvum, UniProt Q8T6T2).
T3 construct: gene 56k.02; recombinant
T3 sequence (Q8T6T2 1-400): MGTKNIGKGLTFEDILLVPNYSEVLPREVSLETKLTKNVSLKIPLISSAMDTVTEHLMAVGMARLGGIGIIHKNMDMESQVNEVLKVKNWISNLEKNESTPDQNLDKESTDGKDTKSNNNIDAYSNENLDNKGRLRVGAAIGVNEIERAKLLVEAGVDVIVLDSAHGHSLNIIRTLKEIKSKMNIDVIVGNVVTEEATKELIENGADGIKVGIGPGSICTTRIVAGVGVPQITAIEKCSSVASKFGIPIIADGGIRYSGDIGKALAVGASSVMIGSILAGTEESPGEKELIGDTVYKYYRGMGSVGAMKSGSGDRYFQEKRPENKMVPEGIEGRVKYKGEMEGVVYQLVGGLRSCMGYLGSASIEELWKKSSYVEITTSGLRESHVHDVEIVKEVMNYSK
The experiment in a line: NADH production, A340. The data set is classed as biochemical. An excerpt:
NADH production, A340 on CpIMPDH

Data set [5] concerns the target T4, CjIMPDHΔS (Campylobacter jejuni, UniProt Q0P9J4, INS91G/DEL92-195).
T4 construct: gene guaB
T4 sequence (Q0P9J4 1-485 INS91G/DEL92-195): T1 sequence (Q0P9J4 1-485)
The experiment in a line: NADH production, A340. It counts as biochemical. As to conditions: pH 8.0, 1 mM IMP, NAD+ about 2.5 x Km, 10 min preincubation, room temperature. An excerpt:
NADH production, A340 on CjIMPDHΔS

Data set [6] has as its target T5, VcIMPDH (Vibrio cholerae, UniProt Q9KTW3).
T5 construct: gene guaB; full-length wild type, N-terminal His6 tag, recombinant E. coli; tetramer
T5 sequence (Q9KTW3 1-489): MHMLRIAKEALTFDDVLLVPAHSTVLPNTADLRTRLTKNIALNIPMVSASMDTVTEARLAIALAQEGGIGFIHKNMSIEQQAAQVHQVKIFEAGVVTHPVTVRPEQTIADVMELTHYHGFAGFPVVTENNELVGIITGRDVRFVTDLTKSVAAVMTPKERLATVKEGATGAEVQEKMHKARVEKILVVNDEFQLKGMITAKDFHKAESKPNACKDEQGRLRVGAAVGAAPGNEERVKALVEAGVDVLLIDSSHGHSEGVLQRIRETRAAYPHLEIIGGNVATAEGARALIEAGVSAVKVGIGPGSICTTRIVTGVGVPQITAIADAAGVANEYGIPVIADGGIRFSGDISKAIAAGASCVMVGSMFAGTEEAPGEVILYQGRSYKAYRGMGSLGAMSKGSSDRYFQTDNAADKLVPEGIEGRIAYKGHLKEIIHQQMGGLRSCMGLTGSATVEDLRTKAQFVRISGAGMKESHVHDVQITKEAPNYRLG
As to the kind of experiment: NADH production, A340. It counts as biochemical. As to conditions: read-out: IC50 / 1. The text has this:
NADH production, A340 on VcIMPDH

In data set [7] the test system is NC(=O)c1ccc[n+]([C@@H]2O[C@H](COP(=O)(O)OP(=O)(O)OC[C@H]3O[C@@H](n4cnc5c(N)ncnc54)[C@H](O)[C@@H]3O)[C@@H](O)[C@H]2O)c1. The experiment in a line: purified protein. As to conditions: pH 8.0; 25.0 °C.

In the case of `NC(=O)c1ccc[n+]([C@@H]2O[C@H](COP(=O)(O)OP(=O)(O)OC[C@H]3O[C@@H](n4cnc5c(N)ncnc54)[C@H](O)[C@@H]3O)[C@@H](O)[C@H]2O)c1` [NAD^+], the “NAD^+ Kii” value in data set [1] was found to be 20 ± 2 mM; in data set [2], 3.9 ± 0.8 mM.
For `C[C@@H](Oc1cc[n+]([O-])c2ccccc12)c1cn(-c2ccc(Cl)cc2)nn1` [compound 1, 4-[(1R)-[1-(4-chlorophenyl)-1H-1,2,3-triazol-4yl]ethoxy]quinoline-1-oxide], the values for the IC50 in data set [3] (read-out: IC50 / 1), in data set [4] (read-out: IC50 / 1) and in data set [5] (read-out: IC50 / 1) were 140 ± 30 nM, 9 ± 2 nM and 107 ± 8 nM, respectively.
Take `Cn1nc(CC(=O)Nc2ccc3oc4c(c3c2)CCCC4)c2ccccc2c1=O` [compound 3, 3,4-dihydro-3-methyl-4-oxo-N-(6,7,8,9-tetrahydro2-dibenzofuranyl)-1-phthalazineacetamide]: the IC50 in data set [6] is > 5000 nM; in data set [3] (read-out: IC50 / 3), 169 ± 20 nM; in data set [4] (read-out: IC50 / 3) it was 24 ± 6 nM; in data set [5] (read-out: IC50 / 3), 200 ± 20 nM.
As for `C=C(C)c1cccc(C(C)(C)NC(=O)Nc2ccc(Br)cc2)c1` [compound 4], the IC50 in data set [6] is > 5000 nM; in data set [3] (read-out: IC50 / 4), 36 ± 8 nM; in data set [4] (read-out: IC50 / 4), 11 ± 5 nM; in data set [5] (read-out: IC50 / 4), 67 ± 13 nM.
As for `C/C(=N\O)c1cccc(C(C)(C)NC(=O)Nc2ccc(Br)cc2)c1` [compound 6], the IC50 was > 5000 nM in data set [6], 29 ± 4 nM in data set [3] (read-out: IC50 / 6), 8 ± 2 nM in data set [4] (read-out: IC50 / 6) and 46 ± 4 nM in data set [5] (read-out: IC50 / 6).
Consider `C[C@H](Oc1cccc2ccccc12)C(=O)Nc1ccc2oc(-c3ccncc3)nc2c1` [compound 7, 2-(1-naphthalenyloxy)-N-[2-(4-pyridinyl)-5-benzoxazolyl)-(2S)-propanamide], for which the IC50 in data set [6] was > 5000 nM; in data set [3] (read-out: IC50 / 7) it was 13 ± 2 nM; in data set [5] (read-out: IC50 / 7), 19 ± 2 nM.
Turning to BaIMPDH (Bacillus anthracis), in data set [7], the Km – broadly, the concentration of substrate that gives half-maximal velocity – was 550 ± 100 µM.

The values are drawn from article PMC4342496 (The Journal of Biological Chemistry, 2015).
